Measured values as given in patent publication US11306064B2, “Benzothia(di)azepine compounds and their use as bile acid modulators” (Albireo AB, priority 2018, dated 2022).

Legend:
Human LBAT = molecular target: T1, Human LBAT (Homo sapiens, UniProt Q14973); test: LBAT (h/m) assay: 3H-taurocholic acid uptake in human LBAT-overexpressing cells; format: cell-based; conditions: 0.3 μM 3H-taurocholic acid and 7.5 μM cold taurocholic acid, 20 minutes, read-out: hLBAT IC50
T1 construct: expressed in transfected cells; kept under Geneticin selection
T1 sequence (Q14973 1-349): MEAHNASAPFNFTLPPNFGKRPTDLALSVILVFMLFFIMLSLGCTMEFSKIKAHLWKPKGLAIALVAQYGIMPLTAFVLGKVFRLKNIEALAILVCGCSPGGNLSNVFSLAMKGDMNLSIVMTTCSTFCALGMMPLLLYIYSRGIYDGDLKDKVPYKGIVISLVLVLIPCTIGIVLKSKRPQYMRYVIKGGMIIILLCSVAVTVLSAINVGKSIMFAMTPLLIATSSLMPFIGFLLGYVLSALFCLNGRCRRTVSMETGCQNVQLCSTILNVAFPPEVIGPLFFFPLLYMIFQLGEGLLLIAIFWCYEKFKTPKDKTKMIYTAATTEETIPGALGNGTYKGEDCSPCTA
Outline: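 LBAT-overexpressing cells, serum-free MEM-alpha, 20 min at 37° C with inhibitor (3-fold, 10-point) plus 0.3 μM 3H-taurocholic acid and cold taurocholic acid (7.5 μM human; 25 μM mouse), 0.2% DMSO. Stopped on ice, washed with 1 mM unlabelled taurocholate; uptake by scintillation counting.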

HepaRG cells = test: HepaRG-based assay: 3H-taurocholic acid uptake in differentiated HepaRG cells; format: cell-based; conditions: Homo sapiens, HepaRG, 0.3 μM 3H-taurocholic acid and 7.5 μM cold taurocholic acid, 30 minutes
Outline: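 Differentiated HepaRG cells cultured 7 days post-seeding were exposed for 30 min at 37 °C to 0.3 μM 3H-taurocholic acid plus 7.5 μM cold taurocholic acid with inhibitor (3-fold dilutions, 0.2% DMSO). Uptake was stopped on ice, washed with 1 mM unlabelled taurocholic acid, and counted by scintillation.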

[1] = Bioavailability studies in mice; format: in vivo; conditions: mouse; C57BL/6 mice; single intravenous dose 1 mg/kg vs single oral dose 10 mg/kg; plasma LC-MS/MS
Protocol: C57BL/6 mice of 8-9 weeks old were used. For each test compound, two groups of 3 animals each were used. One group was administered a single intravenous dose of 1 mg/kg (vehicle 100% DMSO) through the tail vein and the other group was administered a single oral dose of 10 mg/kg through gavage needle. The group that was administered an oral dose was fasted overnight. Blood samples were collected after 0.083, 0.25, 0.5, 1, 2, 4, 6, 8 and 24 hours following intravenous administration, and after 0.25, 0.5, 1, 2, 4, 6, 8 and 24 hours following oral administration. Blood samples were taken from saphenous vein. 0.2% EDTA was used as the anticoagulant. The samples were analyzed by a discovery grade bioanalytical method developed for the estimation of test compound in plasma, using an LC-MS/MS system.

Human ASBT = molecular target: T2, Human ASBT (Homo sapiens, UniProt Q12908); test: ASBT (h/m) assay: 3H-taurocholic acid uptake in human ASBT-overexpressing cells; format: cell-based; conditions: 0.25 μM 3H-taurocholic acid and 5 μM cold taurocholic acid, 20 minutes, read-out: hASBT IC50
T2 construct: expressed in transfected cells; kept under Puromycin selection
T2 sequence (Q12908 1-348): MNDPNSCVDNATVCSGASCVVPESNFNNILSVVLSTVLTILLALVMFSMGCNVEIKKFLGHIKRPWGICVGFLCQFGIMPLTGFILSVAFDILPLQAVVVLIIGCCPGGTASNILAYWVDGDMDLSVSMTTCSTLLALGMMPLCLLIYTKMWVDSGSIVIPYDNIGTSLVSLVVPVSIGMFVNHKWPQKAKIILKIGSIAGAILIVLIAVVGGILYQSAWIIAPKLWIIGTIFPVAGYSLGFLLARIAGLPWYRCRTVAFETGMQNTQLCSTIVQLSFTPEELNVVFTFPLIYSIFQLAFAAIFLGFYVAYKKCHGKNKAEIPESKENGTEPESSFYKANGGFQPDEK
Outline: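 ASBT-overexpressing cells, seeded 48 h earlier, took up 0.25 µM 3H-taurocholic acid plus 5 µM cold taurocholate for 20 min at 37 °C with inhibitor (10-point 3-fold series, top 10 µM, 0.2% DMSO). Ice stop, washes with cold 1 mM taurocholate in HEPES-HBSS pH 7.4, scintillation counting.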

IC50 (Human LBAT)	IC50 (HepaRG cells)	bioavailability [1]	IC50 (Human ASBT)	Structure (SMILES)
4.4 nM	325 nM	20%	–	CCCC[C@@]1(CC)CN(c2ccccc2)c2cc(SC)c(O/C=C(\F)C(=O)O)cc2S(=O)(=O)N1C (single isomer, unassigned) [Example 99]
100 nM	328 nM	–	487 nM	CCC1(CC)CN(c2ccccc2)c2cc(Br)c(O/C=C/C(=O)O)cc2S(=O)(=O)C1 [Example 55, (E)-3-((7-bromo-3,3-diethyl-1,1-dioxido-5-phenyl-2,3,4,5-tetrahydro-1,5-benzothiazepin-8-yl)oxy)acrylic Acid]
37 nM	175 nM	–	380 nM	CCC1(CC)CN(c2ccccc2)c2cc(Br)c(O/C=C(\F)C(=O)O)cc2S(=O)(=O)C1 [Example 56, (Z)-3-((7-bromo-3,3-diethyl-1,1-dioxido-5-phenyl-2,3,4,5-tetrahydro-1,5-benzothiazepin-8-yl)oxy)-2-fluoroacrylic Acid]
235 nM	772 nM	–	> 20000 nM	CCCCC1(CC)CN(c2ccc(C(=O)NC(C)(C)C)cc2)c2cc(SC)c(O/C=C/C(=O)O)cc2S(=O)(=O)C1 (stereo not drawn) [Example 62, (E)-3-((3-butyl-5-(4-(tert-butylcarbamoyl)phenyl)-3-ethyl-7-(methylthio)-1,1-dioxido-2,3,4,5-tetrahydro-1,5-benzothiazepin-8-yl)oxy)acrylic Acid]
30 nM	518 nM	–	2760 nM	CCC1(CC)CN(c2ccc(NCc3ccccc3)cc2)c2cc(SC)c(O/C=C(\F)C(=O)O)cc2S(=O)(=O)C1 [Example 66, (Z)-3-((5-(4-(benzylamino)phenyl)-3,3-diethyl-7-(methylthio)-1,1-dioxido-2,3,4,5-tetrahydro-1,5-benzothiazepin-8-yl)oxy)-2-fluoroacrylic Acid]
130 nM	344 nM	–	6670 nM	CCCCC1(CCCC)CN(c2ccc(C(=O)NC(C)(C)C)cc2)c2cc(SC)c(O/C=C/C(=O)O)cc2S(=O)(=O)C1 [Example 68, (E)-3-((3,3-dibutyl-5-(4-(tert-butylcarbamoyl)phenyl)-7-(methylthio)-1,1-dioxido-2,3,4,5-tetrahydro-1,5-benzothiazepin-8-yl)oxy)acrylic Acid]
364 nM	630 nM	–	> 3000 nM	CCCCC1(CCCC)CN(c2ccc(C(=O)NC(C)C)cc2)c2cc(SC)c(O/C=C/C(=O)O)cc2S(=O)(=O)C1 [Example 69, (E)-3-((3,3-dibutyl-5-(4-(isopropylcarbamoyl)phenyl)-7-(methylthio)-1,1-dioxido-2,3,4,5-tetrahydro-1,5-benzothiazepin-8-yl)oxy)acrylic Acid]
81 nM	716 nM	–	125 nM	CCCCC1(CCCC)CN(c2ccccc2)c2cc(SCC)c(O/C=C(\F)C(=O)O)cc2S(=O)(=O)C1 [Example 70, (Z)-3-((3,3-dibutyl-7-(ethylthio)-1,1-dioxido-5-phenyl-2,3,4,5-tetrahydro-1,5-benzothiazepin-8-yl)oxy)-2-fluoroacrylic Acid]
47 nM	296 nM	–	> 3000 nM	CCCCC1(CCCC)CN(c2ccc(NC(=O)CC)cc2)c2cc(SC)c(O/C=C(\F)C(=O)O)cc2S(=O)(=O)C1 [Example 71, (Z)-3-((3,3-dibutyl-7-(methylthio)-1,1-dioxido-5-(4-propionamidophenyl)-2,3,4,5-tetrahydro-1,5-benzothiazepin-8-yl)oxy)-2-fluoroacrylic Acid]
13 nM	319 nM	–	76 nM	CCCCC1(CC)CN(c2ccccc2)c2cc(SCC)c(O/C=C(\F)C(=O)O)cc2S(=O)(=O)C1 (stereo not drawn) [Example 72, (Z)-3-((3-butyl-3-ethyl-7-(ethylthio)-1,1-dioxido-5-phenyl-2,3,4,5-tetrahydro-1,5-benzothiazepin-8-yl)oxy)-2-fluoroacrylic Acid]
120 nM	766 nM	–	155 nM	CCCCC1(CC)CN(c2ccccc2)c2cc(SCC)c(O/C=C/C(=O)O)cc2S(=O)(=O)C1 (stereo not drawn) [Example 73, (E)-3-((3-butyl-3-ethyl-7-(ethylthio)-1,1-dioxido-5-phenyl-2,3,4,5-tetrahydro-1,5-benzothiazepin-8-yl)oxy)acrylic Acid]
649 nM	3380 nM	–	57 nM	CCCCC1(CCCC)CN(c2ccccc2)c2cc(SC)c(O/C=C(\C)C(=O)O)cc2S(=O)(=O)N1 [Example 74, (E)-3-((3,3-dibutyl-7-(methylthio)-1,1-dioxido-5-phenyl-2,3,4,5-tetrahydro-1,2,5-benzothiadiazepin-8-yl)oxy)-2-methylacrylic Acid]
8 nM	246 nM	–	> 1000 nM	CCCCC1(CCCC)CN(c2ccc(C(=O)NC(C)(C)C)cc2)c2cc(SC)c(O/C=C(\F)C(=O)O)cc2S(=O)(=O)C1 [Example 79, (Z)-3-((3,3-dibutyl-5-(4-(tert-butylcarbamoyl)phenyl)-7-(methylthio)-1,1-dioxido-2,3,4,5-tetrahydro-1,5-benzothiazepin-8-yl)oxy)-2-fluoroacrylic Acid]
220 nM	1080 nM	–	157 nM	CCCCC1(CC)CN(c2ccccc2)c2cc(Br)c(O/C=C/C(=O)O)cc2S(=O)(=O)N1 (stereo not drawn) [Example 87, (E)-3-((7-bromo-3-butyl-3-ethyl-1,1-dioxido-5-phenyl-2,3,4,5-tetrahydro-1,2,5-benzothiadiazepin-8-yl)oxy)acrylic Acid]
77 nM	1220 nM	–	17 nM	CCCCC1(CCCC)CN(c2ccc(O)cc2)c2cc(SC)c(O/C=C(\F)C(=O)O)cc2S(=O)(=O)C1 [Example 95, (Z)-3-((3,3-dibutyl-5-(4-hydroxyphenyl)-7-(methylthio)-1,1-dioxido-2,3,4,5-tetrahydro-1,5-benzothiazepin-8-yl)oxy)-2-fluoroacrylic Acid]
231 nM	785 nM	–	15 nM	CCCCC1(CC)CN(c2ccccc2)c2cc(F)c(O/C=C(\F)C(=O)O)cc2S(=O)(=O)C1 (stereo not drawn) [Example 96, (Z)-3-((3-butyl-3-ethyl-7-fluoro-1,1-dioxido-5-phenyl-2,3,4,5-tetrahydro-1,5-benzothiazepin-8-yl)oxy)-2-fluoroacrylic Acid]
31 nM	246 nM	–	673 nM	CCCCC1(CC)CN(c2ccccc2)c2cc(Br)c(O/C=C(\F)C(=O)O)cc2S(=O)(=O)N1C (stereo not drawn) [Example 106, (Z)-3-((7-bromo-3-butyl-3-ethyl-2-methyl-1,1-dioxido-5-phenyl-2,3,4,5-tetrahydro-1,2,5-benzothiadiazepin-8-yl)oxy)-2-fluoroacrylic Acid]
50 nM	365 nM	–	59 nM	CCCCC1(CCCC)CN(c2ccc(F)c(F)c2)c2cc(SC)c(O/C=C(\F)C(=O)O)cc2S(=O)(=O)C1 [Example 107, (Z)-3-((3,3-dibutyl-5-(3,4-difluorophenyl)-7-(methylthio)-1,1-dioxido-2,3,4,5-tetrahydro-1,5-benzothiazepin-8-yl)oxy)-2-fluoroacrylic Acid]
5.9 nM	447 nM	–	8.5 nM	CCCCC1(CC)CN(c2ccccc2)c2cc(N(C)C)c(O/C=C(\F)C(=O)O)cc2S(=O)(=O)C1 (stereo not drawn) [Example 108, (Z)-3-((3-butyl-7-(dimethylamino)-3-ethyl-1,1-dioxido-5-phenyl-2,3,4,5-tetrahydro-1,5-benzothiazepin-8-yl)oxy)-2-fluoroacrylic Acid]
